# Data taken from patent US9060970B2, “Bridge-helix cap: target and method for inhibition of bacterial RNA polymerase” (priority 2011, dated 2015).
# Entries after “also recorded” stand apart in the source; their conditions may differ. Starred links: 1 amine or outer side, 2 acyl side, 3 side chain; linkers in the order of their positions; H or OH if unused. Positions of bridges follow the written chain, without caps; N, C: chain ends. Non-standard residues stand in square brackets, D forms with d. Residues, ends and D or L forms follow the SMILES beside them. *: point of attachment. X2 = C[C@H](Oc1ccc([C@H](N[*:1])C(=O)[*:2])cc1)[C@@]1(/C=C/C(=O)[*:3])CO1; X1 = CC(C)[C@H](O)[C@H](C)C(=O)*; aIle = CC[C@@H](C)[C@H](N)C(=O)O; dNMeF = CN[C@H](Cc1ccccc1)C(=O)O; aThr = C[C@H](O)[C@H](N)C(=O)O
# What was measured:
# Format in all cases: cell-based, Escherichia coli
# [1] = test system: DNA synthesis in E. coli D21f2tolC; assay: DNA synthesis in vivo ([14C]-thymidine incorporation, macromolecular synthesis assay); settings: Sal at two times MIC; 5, 10, 15 min after addition
# Experimental: Sal Inhibits RNA Synthesis in vivo. To determine whether Sal inhibits RNAP in vivo, effects of Sal on RNA synthesis in vivo were assayed, and, as a control, effects of Sal on DNA synthesis in vivo were assayed. Sal was added to cultures of E. coli D21f2tolC growing in media containing either a radioactively labeled RNA-synthesis precursor ([^14C]-uracil) or a radioactively labeled DNA synthesis precursor ([^14C]-thymidine); aliquots were removed and mixed with trichloroacetic acid (TCA) 0, 5, 10, and 15 min thereafter to lyse cells and precipitate nucleic acids; TCA-precipitated nucleic acids were collected by vacuum filtration; and radioactivity in TCA-precipitated nucleic acids was quantified (FIG. 2A). […] The effect was specific; addition of Sal to bacterial cultures had no effect on DNA synthesis (FIG. 2B, right panel). It is concluded that Sal inhibits RNA synthesis in vivo, and it is inferred that Sal inhibits RNAP in vivo.
# Measurement of Nucleic Acid Synthesis in vivo. Macromolecular synthesis assays were performed essentially as in reference 5. […] Radioactivity was quantified using a Typhoon Variable Mode Imager and ImageQuant v5 (Molecular Dynamics, Inc.).
# [2] = test system: Derivatives of E. coli D21f2tolC containing rifamycin-resistant rpoB mutations; assay: Broth microdilution cross-resistance of rifamycin-resistant mutants to Sal
# [3] = test system: D21f2tolC pRL663 and D21f2tolC pRL706 derivatives; assay: Broth microdilution resistance levels of induced Sal-resistant mutants (plasmid-borne rpoC / rpoB); settings: for resistance level (MIC/MICwild-type): induced mutant
# Experimental: Isolation of Sal-Resistant Mutants: Induced Sal-Resistant Mutants. E. coli Random mutagenesis of rpoC in plasmid pRL663 and rpoB in plasmid pRL706 was performed as in 24, mutagenenized plasmids were passaged in E. coli XL1-Blue (Stratgene, Inc.) as in 24, mutagenized plasmids were introduced by transformation into E. coli D21f2tolC as in 24, and transformants (˜1×10^4 cells) were applied to LB-agar plates containing 1 μg/ml Sal, 200 μg/ml ampicillin, and 1 mM IPTG, and plates were incubated 16-24 h at 37° C. Sal-resistant mutants were identified by the ability to form colonies on this medium and were confirmed by re-streaking on the same medium.
# Quantitation of Resistance to Sal. Resistance to Sal was quantified by performing broth microdilution assays. Single colonies were inoculated into 3 ml LB broth, and incubated 3-6 h at 37° C. with shaking. Diluted aliquots (2×10^4 cells in 98 μl LB broth; concentrations determined using OD600=1 for 10^9 cells) were dispensed into wells of a 96-well plate, were supplemented with 2 μl of a 2-fold dilution series of Sal in methanol (final concentrations of […], 0.390, 0.195, 0.0975, 0.0488, 0.0244, 0.0122, and 0.00609 μg/ml) or 2 μl of a solvent blank, and were incubated 16 h at 37° C. with shaking. The minimum inhibitory concentration (MIC) was defined as the lowest tested concentration of Sal that inhibited bacterial growth by 95%.
smiles,measurement,setting,value
"CC[C@@H](C)[C@@H]1NC(=O)[C@H](NC(=O)[C@@H](C)[C@@H](O)C(C)C)[C@H](C)OC(=O)[C@H]2COC(=O)CNC(=O)/C=C/[C@@]3(CO3)[C@H](C)Oc3ccc(cc3)[C@H](NC1=O)C(=O)N(C)[C@H](Cc1ccccc1)C(=O)N[C@@H]([C@H](C)O)C(=O)N2 [Sal, salinamide A] (X1-[dT][aIle][X2][dNMeF][aThr][dS]; ester 1-C; linker 3-6 via G)",effect on DNA synthesis in vivo,[1],no effect
same,cross-resistance level (MIC/MICwild-type),[2]; rifampin-resistant mutant rpoB (RNAP β subunit) 516 Asp→Val,1
same,cross-resistance level (MIC/MICwild-type),[2]; rifampin-resistant mutant rpoB (RNAP β subunit) 526 His→Asp,1
same,cross-resistance level (MIC/MICwild-type),[2]; rifampin-resistant mutant rpoB (RNAP β subunit) 526 His→Tyr,1
same,cross-resistance level (MIC/MICwild-type),[2]; rifampin-resistant mutant rpoB (RNAP β subunit) 531 Ser→Leu,1
same,cross-resistance of rifamycin-resistant mutants (in words),"[2]; β Asp516→Val, His526→Asp, His526→Tyr, Ser531→Leu mutants (Table 5)",not cross-resistant; also recorded: no cross-resistance
same,MIC with wild-type rpoC and wild-type rpoB,"[3]; D21f2tolC pRL663 and D21f2tolC pRL706 derivatives, wild-type plasmid genes",^aAssayed as D21f2tolC pRL663 and D21f2tolC pRL706 derivatives; MIC with wild-type rpoC and wild-type rpoB was 0.098 μg/ml.
same,resistance level (MIC/MICwild-type),[3]; rpoB (RNAP β subunit) 561 Ile→Ser,2
same,resistance level (MIC/MICwild-type),[3]; rpoB (RNAP β subunit) 665 Ala→Glu,8
same,resistance level (MIC/MICwild-type),[3]; rpoB (RNAP β subunit) 680 Leu→Met,4
same,resistance level (MIC/MICwild-type),[3]; rpoC (RNAP β′ subunit) 758 Pro→Thr,4
same,resistance level (MIC/MICwild-type),[3]; rpoC (RNAP β′ subunit) 780 Arg→Cys,8
same,resistance level (MIC/MICwild-type),[3]; rpoC (RNAP β′ subunit) 782 Gly→Cys,8
